Laboratory results from US20250340543A1, “GPR84 ANTAGONISTS AND USES THEREOF” (Liminal BioSciences Limited, priority 2021, published 2025).

The molecules below were run against GPR84 (Homo sapiens (Human), UniProt Q9NQS5) (assay: Gai biosensor BRET assay (GPR84-mediated activation of Gai, antagonist mode against agonist ZQ-16)). Details: HEK293 cells, 200 nmol/L GPR84 agonist ZQ-16, read-out: hGPR84 IC50.
Type: cell-based
Method in brief: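 Transiently transfected HEK293 cells expressing GPR84, Gαi2-Rluc8, GFP10-Gγ2 and Gβ1, in Tyrode's buffer pH 7.5. Compounds pre-incubated 5 min at 37° C, then 200 nmol/L ZQ-16 for 5 min at room temperature; BRET² with coelenterazine 400A, ligand-promoted net BRET after background and vehicle subtraction.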

GPR84, sequence (Q9NQS5 whole entry): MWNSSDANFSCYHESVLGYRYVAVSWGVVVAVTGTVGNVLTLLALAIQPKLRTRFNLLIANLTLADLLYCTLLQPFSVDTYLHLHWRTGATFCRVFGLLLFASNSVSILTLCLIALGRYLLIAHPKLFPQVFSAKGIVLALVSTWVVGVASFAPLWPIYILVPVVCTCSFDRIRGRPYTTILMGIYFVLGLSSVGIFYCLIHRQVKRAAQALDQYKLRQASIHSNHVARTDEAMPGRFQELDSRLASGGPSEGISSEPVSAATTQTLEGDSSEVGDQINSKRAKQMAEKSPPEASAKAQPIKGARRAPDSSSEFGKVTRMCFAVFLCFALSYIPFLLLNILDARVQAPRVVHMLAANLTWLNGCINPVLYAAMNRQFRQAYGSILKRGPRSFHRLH

For `Cc1cc(OCc2ccnn2C)cc(=O)n1[C@H](C)c1ccc(C#CC2CC2)cc1` [Compound I-351], which IC50 is on record?
Its IC50 is less than 5 µM.

Which IC50 does the source give for `O=c1nc(OCC2COCCO2)cc2n1CCOc1cc(C#CC3CC3)ccc1-2` (stereo not drawn) [Compound I-214] here?
The IC50 was less than 5 µM.

`O=C(CC1CCOCC1)N1Cc2ccc(C#CC3CC3)cc2C1` [Compound I-180] was tested. Which IC50 did it give?
The IC50 was greater than 25 µM.

With `Cc1cc(OCc2cccnc2)cc(=O)n1[C@H](C)c1ccc(C#CC2CC2)cc1` [Compound I-272] as the molecule, how does the IC50 read?
The IC50 was less than 5 µM.

For `Cc1cc(OCc2cncnc2)cc(=O)n1[C@H](C)c1ccc(C#CC2CC2)cc1` [Compound I-283], which IC50 is on record?
The IC50 was less than 5 µM.

Which IC50 does the source give for `Cc1cc(OCc2cccnn2)cc(=O)n1[C@H](C)c1ccc(C#CC2CC2)cc1` [Compound I-291] here?
The IC50 was less than 5 µM.

With `Cc1cc(OCC2COCCO2)cc(=O)n1C(C)c1ccc(C#CC2CC2)cc1` (stereo not drawn) [Compound I-1] as the molecule, how does the IC50 read?
The IC50 was less than 5 µM.

For `Cc1cc(OCc2cnccc2Cl)cc(=O)n1[C@H](C)c1ccc(C#CC2CC2)cc1` [Compound I-315], which IC50 is on record?
The IC50 was less than 5 µM.

With `Cc1cc(OCc2nccn2C)cc(=O)n1[C@H](C)c1ccc(C#CC2CC2)cc1` [Compound I-303] as the molecule, how does the IC50 read?
Its IC50 is less than 5 µM.

With `Cc1cc(OCc2ncccn2)cc(=O)n1[C@H](C)c1ccc(C#CC2CC2)c(F)c1` [Compound I-325] as the molecule, how does the IC50 read?
The IC50 was less than 5 µM.

For `Cc1cc(OCc2cncnc2)cc(=O)n1C(C)c1ccc(C#CC2CC2)c(F)c1` (stereo not drawn) [Compound I-364], which IC50 is on record?
Its IC50 is less than 5 µM.

How did the IC50 turn out when `Cc1cc(OCc2ccccn2)cc(=O)n1[C@H](C)c1ccc(C#CC2CC2)cc1` [Compound I-290] was run?
The IC50 was less than 5 µM.

Same assay, conditions: compound tested at 2 μM (concentration code A)

With `Cc1cc(OCc2ncccn2)cc(=O)n1C(C)c1ccc2cc(C3CC3)ccc2c1` (stereo not drawn) [Compound I-354] as the molecule, how does the inhibition at 2 µM read?
Its inhibition at 2 µM is less than 25%.

`Cc1cc(OCc2cccnc2)cc(=O)n1[C@H](C)c1ccc(C#CC2CC2)cc1` [Compound I-272] was tested. Which inhibition at 2 µM did it give?
Its inhibition at 2 µM is greater than 75%.

How did the inhibition at 2 µM turn out when `Cc1cc(OCc2cncnc2)cc(=O)n1[C@H](C)c1ccc(C#CC2CC2)cc1` [Compound I-283] was run?
The inhibition at 2 µM was greater than 75%.

Which inhibition at 2 µM does the source give for `Cc1cc(OCc2cccnn2)cc(=O)n1[C@H](C)c1ccc(C#CC2CC2)cc1` [Compound I-291] here?
The inhibition at 2 µM was greater than 75%.

`Cc1cc(OCc2cnccc2Cl)cc(=O)n1[C@H](C)c1ccc(C#CC2CC2)cc1` [Compound I-315] was tested. Which inhibition at 2 µM did it give?
The inhibition at 2 µM was greater than 75%.

`Cc1cc(OCc2nccn2C)cc(=O)n1[C@H](C)c1ccc(C#CC2CC2)cc1` [Compound I-303] was tested. Which inhibition at 2 µM did it give?
Its inhibition at 2 µM is greater than 75%.

For `Cc1ccc(C#CC2CC2)cc1Cn1c(C)cc(OCc2ncccn2)cc1=O` [Compound I-289], which inhibition at 2 µM is on record?
Its inhibition at 2 µM is less than 25%.

Which inhibition at 2 µM does the source give for `Cc1cc(OCc2ccccn2)cc(=O)n1[C@H](C)c1ccc(C#CC2CC2)cc1` [Compound I-290] here?
Its inhibition at 2 µM is greater than 75%.

Same assay, conditions: compound tested at 10 μM (concentration code D)

How did the inhibition at 10 µM turn out when `Cc1cc(OCC2COCCO2)cc(=O)n1C(C)c1cccc(C#CC2CC2)c1` (stereo not drawn) [Compound I-88] was run?
The inhibition at 10 µM was less than 25%.

For `Cc1cc(OCc2ncccn2)cc(=O)n1[C@H](C)c1ccc(CCC2CC2)cc1` [Compound I-310], which inhibition at 10 µM is on record?
Its inhibition at 10 µM is 25 to 50%.

With `Cc1cc(C#CC2CC2)ccc1-c1cncc(OCC2COCCO2)c1` (stereo not drawn) [Compound I-43] as the molecule, how does the inhibition at 10 µM read?
Its inhibition at 10 µM is 25 to 50%.

For `Cc1cc(OCc2ccnn2C)cc(=O)n1[C@H](C)c1ccc(C#CC2CC2)cc1` [Compound I-351], which inhibition at 10 µM is on record?
The inhibition at 10 µM was greater than 75%.

How did the inhibition at 10 µM turn out when `Cc1cc(OC[C@@H]2COCCO2)cc(=O)n1C(C)c1ccc(C#CC2CC2)cn1` (stereo partly drawn) [Compound I-246] was run?
The inhibition at 10 µM was less than 25%.

With `Cc1cc(OC[C@H]2COCCO2)cc(=O)n1[C@@H](C)c1ccc(C#CC2CC2)cc1` [Compound I-44] as the molecule, how does the inhibition at 10 µM read?
Its inhibition at 10 µM is 25 to 50%.

`Cc1cc(OCC2COCCO2)cc(=O)n1Cc1cccc(C#CC(C)(C)C)c1` (stereo not drawn) [Compound I-96] was tested. Which inhibition at 10 µM did it give?
Its inhibition at 10 µM is less than 25%.

How did the inhibition at 10 µM turn out when `Cc1cc(OCc2ncccn2)cc(=O)n1C(C)c1cc(C#CC2CC2)cs1` (stereo not drawn) [Compound I-265] was run?
Its inhibition at 10 µM is less than 25%.

With `Cc1cc(OCc2ncccn2)cc(=O)n1Cc1cccc(N2CC(C)(C)C2)c1` [Compound I-271] as the molecule, how does the inhibition at 10 µM read?
The inhibition at 10 µM was less than 25%.

`Cc1cc(OCc2ncccn2)cc(=O)n1[C@H](C)c1ccc(C#Cc2ccccc2)cc1` [Compound I-329] was tested. Which inhibition at 10 µM did it give?
The inhibition at 10 µM was less than 25%.

For `Cc1cc(OCC2COCCO2)cc(=O)n1[C@H](C)c1ccc(C#CCNS(=O)(=O)C2CC2)cc1` (stereo partly drawn) [Compound I-149], which inhibition at 10 µM is on record?
The inhibition at 10 µM was less than 25%.

How did the inhibition at 10 µM turn out when `COc1ccc2nc(-c3ccc(C#CC4CC4)cc3)cn2c1` [Compound I-216] was run?
Its inhibition at 10 µM is less than 25%.

`CC(c1cc(C#CC2CC2)ccn1)n1ccc(OC[C@@H]2COCCO2)cc1=O` (stereo partly drawn) [Compound I-286] was tested. Which inhibition at 10 µM did it give?
The inhibition at 10 µM was less than 25%.

With `Cc1cc(OC[C@H]2COc3ncccc3O2)cc(=O)n1Cc1cccc(C#CC2CC2)c1` [Compound I-118] as the molecule, how does the inhibition at 10 µM read?
Its inhibition at 10 µM is less than 25%.

Which inhibition at 10 µM does the source give for `Cc1cc(OCc2ncc(Cl)cn2)cc(=O)n1[C@H](C)c1ccc(C#CC2CC2)cc1` [Compound I-260] here?
Its inhibition at 10 µM is greater than 75%.

How did the inhibition at 10 µM turn out when `Cc1cc(OCc2ncccn2)cc(=O)n1C(C)c1ccc(C#CC2CC2)nc1` (stereo not drawn) [Compound I-287] was run?
The inhibition at 10 µM was 25 to 50%.

How did the inhibition at 10 µM turn out when `Cc1cc(OCC2COCCO2)cc(=O)n1[C@H](C)c1ccc(N2CC(C)(CO)C2)cc1` (stereo partly drawn) [Compound I-224] was run?
The inhibition at 10 µM was less than 25%.

For `Cc1cc(OCc2ncccn2)cc(=O)n1[C@H](C)c1ccc(C#CCN(C)Cc2ccccc2)cc1` [Compound I-264], which inhibition at 10 µM is on record?
The inhibition at 10 µM was 25 to 50%.

With `Cc1cc(OCc2ncccn2)cc(=O)n1[C@H](C)c1ccc(C#CC(C)C)cc1` [Compound I-298] as the molecule, how does the inhibition at 10 µM read?
The inhibition at 10 µM was 50 to 75%.

With `Cc1cc(OCc2ncccn2)cc(=O)n1[C@H](C)Cc1ccc(C#CC2CC2)cc1` (stereo in doubt) [Compound I-276] as the molecule, how does the inhibition at 10 µM read?
The inhibition at 10 µM was greater than 75%.

For `Cc1cc(OCC2CCOCC2)cc(=O)n1[C@H](C)c1ccc(N2CC(C)(C)C2)cc1` (stereo in doubt) [Compound I-148], which inhibition at 10 µM is on record?
Its inhibition at 10 µM is 25 to 50%.

Which inhibition at 10 µM does the source give for `Cc1cc(OCc2ccn(C)n2)cc(=O)n1[C@H](C)c1ccc(C#CC2CC2)cc1` [Compound I-350] here?
The inhibition at 10 µM was greater than 75%.

With `Cc1cc(OCc2cnn(C)n2)cc(=O)n1[C@H](C)c1ccc(C#CC2CC2)cc1` [Compound I-358] as the molecule, how does the inhibition at 10 µM read?
Its inhibition at 10 µM is greater than 75%.

How did the inhibition at 10 µM turn out when `Cc1cc(OCc2ncccn2)cc(=O)n1[C@H](C)c1ccc(C#CC2CC2)c(F)c1` [Compound I-325] was run?
Its inhibition at 10 µM is greater than 75%.

Which inhibition at 10 µM does the source give for `Cc1cc(OCc2cncnc2)cc(=O)n1C(C)c1ccc(C#CC2CC2)c(F)c1` (stereo not drawn) [Compound I-364] here?
The inhibition at 10 µM was greater than 75%.

Same assay, conditions: compound tested at 25 μM (concentration code G)

With `O=c1nc(OCC2COCCO2)cc2n1CCOc1cc(C#CC3CC3)ccc1-2` (stereo not drawn) [Compound I-214] as the molecule, how does the inhibition at 25 µM read?
Its inhibition at 25 µM is greater than 75%.

With `O=C(CC1CCOCC1)N1Cc2ccc(C#CC3CC3)cc2C1` [Compound I-180] as the molecule, how does the inhibition at 25 µM read?
The inhibition at 25 µM was 50 to 75%.

With `Cc1cc(OCC2COCCO2)cc(=O)n1C(C)c1ccc(C#CC2CC2)cc1` (stereo not drawn) [Compound I-1] as the molecule, how does the inhibition at 25 µM read?
Its inhibition at 25 µM is greater than 75%.
